In PMC8623179, “Design and Microwave Synthesis of New (5Z) 5-Arylidene-2-thioxo-1,3-thiazolinidin-4-one and (5Z) 2-Amino-5-arylidene-1,3-thiazol-4(5H)-one as New Inhibitors of Protein Kinase DYRK1A” (Pharmaceuticals, 2021) one finds IC50 data, which are given here for 22 molecules.

Molecules are shown by their SMILES. Like-named read-outs stand apart in the source and are kept apart here. Some results are limits rather than exact numbers.

One assay concerns the target T1, DYRK1A (Rattus norvegicus, UniProt Q63470).
T1 construct: GST; made in house; host or cells: Escherichia coli
Briefly: DYRK1A kinase assay. The format is biochemical. The settings on record: 15 μM ATP. Here is the method: (§1) The twenty-two (5Z) 5-arylidene-2-thioxo-1,3-thiazolidin-4-ones 3a–v and the twenty-four (5Z) 2-amino-5-arylidene-1,3-thiazolidin-4(5H)-ones 5a–x were evaluated against four different and representative in vitro kinase assays DYRK1A (dual specificity tyrosine phosphorylation regulated kinase), CK1 δ/e (caseine kinase 1), CDK5/p25 (cyclin dependant kinase), and GSK3 α/β (glycogen synthase kinase 3) to evaluate their inhibition potency. […] All the compounds were initially tested at a 10 μM concentration.
After 30-min incubation at 30 °C, the reaction was stopped by harvesting, using a FilterMate harvester (Packard), onto P81 phospho-cellulose papers (GE Healthcare, Chicago, IL, USA) which were washed in 1% phosphoric acid. Scintillation fluid was added and the radioactivity measured in a Packard counter. Blank values were subtracted and activities calculated as pmoles of phosphate incorporated for the 30-min incubation. The activities were expressed in % of the maximal activity, i.e., in the absence of inhibitors. Controls were performed with appropriate dilutions of DMSO. […]

The target in the next assay is T2, CDK5/p25 (Homo sapiens, UniProt Q00535).
T2 construct: made in house
Briefly: CDK5/p25 kinase assay. The format is biochemical. Conditions: 15 μM ATP. On the procedure: as §1
(§2) After 30-min incubation at 30 °C, the reaction was stopped by harvesting, using a FilterMate harvester (Packard), onto P81 phospho-cellulose papers (GE Healthcare, Chicago, IL, USA) which were washed in 1% phosphoric acid. Scintillation fluid was added and the radioactivity measured in a Packard counter. Blank values were subtracted and activities calculated as pmoles of phosphate incorporated for the 30-min incubation. The activities were expressed in % of the maximal activity, i.e., in the absence of inhibitors. Controls were performed with appropriate dilutions of DMSO.
CDK5/p25 (human, recombinant) was prepared as previously described. […] ATP (3000 Ci/mmol; 10 mCi/mL) in a final volume of 30 μL. After 30-min incubation at 30 °C, 25 μL aliquots of supernatant were spotted onto 2.5 × 3 cm pieces of Whatman P81 phospho-cellulose paper, and, 20 s later, the filters were washed five times (for at least 5 min each time) in a solution of 10 mL phosphoric acid/litter of water. The wet filters were counted in the presence of 1 mL ACS (Amersham, UK) scintillation fluid.

The target in another assay is Casein kinase 1 (CK1δ/ε). Briefly: CK1δ/ε kinase assay. Conditions: 15 μM ATP, read-out: IC50 CK1. In kind it is biochemical, porcine. Here is the method:
as §1, §2
Casein kinase 1 (CK1δ/ε) (porcine brain, native) was assayed with 0.67 µg of CKS peptide ([…]pSAYSITA), a CK1 specific substrate obtained from Millegen (Labege, France).

The next assay addresses GSK-3α/β. Briefly: GSK-3α/β kinase assay. In kind it is biochemical, porcine. Conditions: 15 μM ATP, read-out: IC50 GSK3α/β. Here is the method: as §1, §2
GSK-3α/β (porcine brain, native) was assayed, as described for CDK5/p25 but in Buffer A and using a GSK-3 specific substrate (GS-1: […]pEDEEE) (pS stands for phosphorylated serine). GS-1 was synthesized by Millegen (Labege, France).

T2 sequence (Q00535 whole entry): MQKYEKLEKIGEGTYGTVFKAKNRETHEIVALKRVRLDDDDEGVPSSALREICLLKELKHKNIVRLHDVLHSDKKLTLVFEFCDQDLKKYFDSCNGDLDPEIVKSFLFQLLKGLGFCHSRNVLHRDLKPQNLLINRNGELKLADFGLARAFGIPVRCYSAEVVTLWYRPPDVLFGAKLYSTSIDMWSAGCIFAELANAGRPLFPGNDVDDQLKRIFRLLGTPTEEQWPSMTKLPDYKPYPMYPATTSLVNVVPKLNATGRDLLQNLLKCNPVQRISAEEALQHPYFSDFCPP
T2 sequence (Q15078 99-307 partner limits assumed): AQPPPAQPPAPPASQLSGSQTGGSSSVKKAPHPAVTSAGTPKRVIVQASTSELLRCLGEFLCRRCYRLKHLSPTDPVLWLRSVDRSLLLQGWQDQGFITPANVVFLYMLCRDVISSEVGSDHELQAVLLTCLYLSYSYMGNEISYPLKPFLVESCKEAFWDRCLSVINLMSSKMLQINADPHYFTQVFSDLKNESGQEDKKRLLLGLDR

Take `O=C1N=C(Nc2ccccc2)S/C1=C\c1ccc2c(c1)OCCO2` [Compound 5x, (5Z)-5-(2,3-Dihydro-benzo[1,4]dioxin-6-ylmethylene)-2-phenylamino-1,3-thiazol-4(5H)-one]: the IC50 against DYRK1A (Table 5) was 0.27 µM; against CDK5/p25 (Table 5) it was greater than 10 µM; at Casein kinase 1 (CK1δ/ε) (Table 5), greater than 10 µM; at GSK-3α/β (Table 5) it was greater than 10 µM.

Regarding `O=C1N=C(N2CCCCC2)S/C1=C\c1ccc2c(c1)OCCO2` [Compound 5p, (5Z)-5-(2,3-Dihydro-1,4-benzodioxin-6-ylmethylene)-2-(piperidin-1-yl)-1,3-thiazol-4(5H)-one], the IC50 against DYRK1A (Table 5) is 0.94 µM; at CDK5/p25 (Table 5) it was greater than 10 µM; on Casein kinase 1 (CK1δ/ε) (Table 5), no less than 10 µM; on GSK-3α/β (Table 5) it was greater than 10 µM.

Turning to `O=C1N=C(Nc2ccc(Cl)cc2)S/C1=C\c1ccc2c(c1)OCO2` [Compound 5v, (5Z)-5-Benzo[1,3]dioxol-5-ylmethylene-2-(4-chloro-phenylamino)-1,3-thiazol-4(5H)-one], the IC50 against DYRK1A (Table 5) was 9 µM; on CDK5/p25 (Table 5) it was greater than 10 µM; on Casein kinase 1 (CK1δ/ε) (Table 5), greater than 10 µM; at GSK-3α/β (Table 5), greater than 10 µM.

`O=C1N=C(Nc2ccccc2)S/C1=C\c1ccc2c(c1)CCO2` [Compound 5w, (5Z)-5-(2,3-Dihydro-benzofuran-5-ylmethylene)-2-phenylamino-1,3-thiazol-4(5H)-one]: the IC50 was 0.12 µM against DYRK1A (Table 5), greater than 10 µM against CDK5/p25 (Table 5), greater than 10 µM on Casein kinase 1 (CK1δ/ε) (Table 5) and greater than 10 µM on GSK-3α/β (Table 5).

As for `O=C1N=C(N2CCN(Cc3ccc4c(c3)OCO4)CC2)S/C1=C\c1ccc2c(c1)OCO2` [Compound 5j, (5Z)-5-(1,3-Benzodioxol-5-ylmethylene)-2-[1-(1,3-benzodioxol-5-ylmethyl)piperazin-1-yl]-1,3-thiazol-4(5H)-one], the IC50 was no less than 10 µM on DYRK1A (Table 5), greater than 10 µM on CDK5/p25 (Table 5), greater than 10 µM at Casein kinase 1 (CK1δ/ε) (Table 5) and greater than 10 µM at GSK-3α/β (Table 5).

As for `O=C1N=C(N2CCN(c3ccc(F)cc3)CC2)S/C1=C\c1ccc2c(c1)OCO2` [Compound 5k, (5Z)-5-(1,3-Benzodioxol-5-ylmethylene)-2-[1-(4-fluorophenyl)piperazin-1-yl]-1,3-thiazol-4(5H)-one], the IC50 against DYRK1A (Table 5) was 1.6 µM; at CDK5/p25 (Table 5), greater than 10 µM; on Casein kinase 1 (CK1δ/ε) (Table 5) it was greater than 10 µM; on GSK-3α/β (Table 5), greater than 10 µM.

For the molecule `O=C1N=C(N2CCSCC2)S/C1=C\c1ccc2c(c1)CCO2` [Compound 5n, (5Z)-5-(2,3-Dihydro-benzofuran-5-ylmethylene)-2-(thiomorpholin-4-yl)-1,3-thiazol-4(5H)-one], the IC50 against DYRK1A (Table 5) is 0.07 µM; on CDK5/p25 (Table 5) it was greater than 10 µM; on Casein kinase 1 (CK1δ/ε) (Table 5), greater than 10 µM; on GSK-3α/β (Table 5), 5.3 µM.

Turning to `COc1ccc(/C=C2\SC(N3CCSCC3)=NC2=O)cc1OC` [Compound 5h, (5Z)-5-(3,4-Dimethoxybenzylidene)-2-(thiomorpholin-1-yl)-1,3-thiazol-4(5H)-one], the IC50 against DYRK1A (Table 5), at CDK5/p25 (Table 5), on Casein kinase 1 (CK1δ/ε) (Table 5) and on GSK-3α/β (Table 5) was greater than 10 µM each time.

For the molecule `O=C1N=C(Nc2ccccc2)S/C1=C\c1ccc2c(c1)OCO2` [Compound 5r, (5Z)-5-Benzo[1,3]dioxol-5-ylmethylene-2-phenylamino-1,3-thiazol-4(5H)-one], the IC50 on DYRK1A (Table 5) is 0.61 µM; on CDK5/p25 (Table 5) it was greater than 10 µM; on Casein kinase 1 (CK1δ/ε) (Table 5), greater than 10 µM; on GSK-3α/β (Table 5), greater than 10 µM.

On to `O=C(NN1C(=O)/C(=C/c2ccc3c(c2)OCO3)SC1=S)c1ccccc1` [Compound 3p, (5Z)-N-(5-Benzo[1,3]dioxol-5-ylmethylene-4-oxo-2-thioxo-thiazolidin-3-yl)-benzamide], for which the IC50 at DYRK1A (Table 4), at CDK5/p25 (Table 4), on Casein kinase 1 (CK1δ/ε) (Table 4) and on GSK-3α/β (Table 4) was greater than 10 µM in each case.

Take `O=C1N=C(N2CCSCC2)S/C1=C\c1ccc2c(c1)OCCO2` [Compound 5q, (5Z)-5-(2,3-Dihydro-1,4-benzodioxin-6-ylmethylene)-2-(thiomorpholin-4-yl)-1,3-thiazol-4(5H)-one]: the IC50 on DYRK1A (Table 5) was 0.17 µM; on CDK5/p25 (Table 5) it was greater than 10 µM; at Casein kinase 1 (CK1δ/ε) (Table 5), greater than 10 µM; at GSK-3α/β (Table 5), 3.7 µM.

With `O=C1N=C(N2CCCCC2)S/C1=C\c1ccc2c(c1)CCO2` [Compound 5o, (5Z)-5-(2,3-Dihydro-benzofuran-5-ylmethylene)-2-(piperidin-1-yl)-1,3-thiazol-4(5H)-one], the IC50 is 0.09 µM against DYRK1A (Table 5), greater than 10 µM against CDK5/p25 (Table 5), no less than 10 µM at Casein kinase 1 (CK1δ/ε) (Table 5) and 4.7 µM on GSK-3α/β (Table 5).

As to `O=C(O)CCN1C(=O)/C(=C/c2ccc3c(c2)OCO3)SC1=S` [Compound 3v, (5Z)-3-(5-Benzo[1,3]dioxol-5-ylmethylene-4-oxo-2-thioxo-thiazolidin-3-yl)-propionic acid], the IC50 on DYRK1A (Table 4) was 0.7 µM; against CDK5/p25 (Table 4) it was greater than 10 µM; on Casein kinase 1 (CK1δ/ε) (Table 4), greater than 10 µM; at GSK-3α/β (Table 4), greater than 10 µM.

`COc1ccc(C(=O)NN2C(=O)/C(=C/c3ccc4c(c3)OCO4)SC2=S)cc1` [Compound 3s]: the IC50 on DYRK1A (Table 4), on CDK5/p25 (Table 4), on Casein kinase 1 (CK1δ/ε) (Table 4) and on GSK-3α/β (Table 4) was greater than 10 µM each time.

On to `O=C1NC(=S)S/C1=C\c1ccc2c(c1)CCCO2` [Compound 3m, (5Z)-5-(Chroman-6-yl)methylene-2-thioxo-1,3-thiazolidin-4-one], for which the IC50 against DYRK1A (Table 4) is 6.5 µM; at CDK5/p25 (Table 4), greater than 10 µM; on Casein kinase 1 (CK1δ/ε) (Table 4), greater than 10 µM; on GSK-3α/β (Table 4), greater than 10 µM.

Consider `CN1CCN(C2=NC(=O)/C(=C/c3ccc4c(c3)OCO4)S2)CC1` [Compound 5f, (5Z)-5-(1,3-Benzodioxol-5-ylmethylene)-2-(4-N-methylpiperazin-1-yl)-1,3-thiazol-4(5H)-one], for which the IC50 against DYRK1A (Table 5) is 2.3 µM; at CDK5/p25 (Table 5), greater than 10 µM; on Casein kinase 1 (CK1δ/ε) (Table 5) it was greater than 10 µM; at GSK-3α/β (Table 5), greater than 10 µM.

For `O=C(CCc1ccccc1)NN1C(=O)/C(=C/c2ccc3c(c2)OCO3)SC1=S` [Compound 3r, (5Z)-N-(5-Benzo[1,3]dioxol-5-ylmethylene-4-oxo-2-thioxo-thiazolidin-3-yl)-3-phenyl-propionamide], the IC50 against DYRK1A (Table 4), against CDK5/p25 (Table 4), at Casein kinase 1 (CK1δ/ε) (Table 4) and at GSK-3α/β (Table 4) was greater than 10 µM throughout.

With `O=C1N=C(N2CCCCC2)S/C1=C\c1ccc2c(c1)OCO2` [Compound 5i, (5Z)-5-(1,3-Benzodioxol-5-ylmethylene)-2-(piperidin-1-yl)-1,3-thiazol-4(5H)-one], the IC50 on DYRK1A (Table 5) is 0.053 µM; against CDK5/p25 (Table 5) it was greater than 10 µM; at Casein kinase 1 (CK1δ/ε) (Table 5), greater than 10 µM; at GSK-3α/β (Table 5) it was 7.4 µM.

Turning to `O=C1N=C(Nc2ccccn2)S/C1=C\c1ccc2c(c1)OCO2` [Compound 5s, (5Z)-5-Benzo[1,3]dioxol-5-ylmethylene-2-(pyridin-2-yl)amino-1,3-thiazol-4(5H)-one], the IC50 was 0.033 µM against DYRK1A (Table 5), greater than 10 µM against CDK5/p25 (Table 5), greater than 10 µM on Casein kinase 1 (CK1δ/ε) (Table 5) and no more than 10 µM at GSK-3α/β (Table 5).

Turning to `O=C1NC(=S)S/C1=C\c1cccc(-c2ccc3c(c2)OCO3)n1` [Compound 3h, (5Z)-5-{[6-(1,3-Benzodioxol-5-yl)pyridin-2-yl]methylene}-2-thioxo-1,3-thiazolidin-4-one], the IC50 is 0.35 µM against DYRK1A (Table 4), greater than 10 µM at CDK5/p25 (Table 4), greater than 10 µM on Casein kinase 1 (CK1δ/ε) (Table 4) and 1.6 µM at GSK-3α/β (Table 4).

Consider `O=C1N=C(N2CCNCC2)S/C1=C\c1ccc2c(c1)OCO2` [Compound 5e, (5Z)-5-(1,3-Benzodioxol-5-ylmethylene)-2-(piperazin-1-yl)-1,3-thiazol-4(5H)-one], for which the IC50 is 1.8 µM at DYRK1A (Table 5), greater than 10 µM against CDK5/p25 (Table 5), greater than 10 µM on Casein kinase 1 (CK1δ/ε) (Table 5) and no more than 8.8 µM at GSK-3α/β (Table 5).

Take `O=C1/C(=C/c2ccc3c(c2)OCO3)SC(=S)N1NS(=O)(=O)c1ccccc1` [Compound 3t, (5Z)-N-(5-Benzo[1,3]dioxol-5-ylmethylene-4-oxo-2-thioxo-thiazolidin-3-yl)-benzenesulfonamide]: the IC50 on DYRK1A (Table 4), against CDK5/p25 (Table 4), at Casein kinase 1 (CK1δ/ε) (Table 4) and on GSK-3α/β (Table 4) was greater than 10 µM each time.
